What is called IC50 is the midpoint of a concentration-inhibition curve.

The assay deals with T1, Lipoprotein-Related Phospholipase A2 (Lp-PLA2) in Human Plasma (Homo sapiens, UniProt Q13093).
T1 construct: 40 μL of equally-divided and thawed mixed human plasma is pre-added; from tissue; host or cells: mixed (pooled) human plasma
T1 sequence (Q13093 22-441): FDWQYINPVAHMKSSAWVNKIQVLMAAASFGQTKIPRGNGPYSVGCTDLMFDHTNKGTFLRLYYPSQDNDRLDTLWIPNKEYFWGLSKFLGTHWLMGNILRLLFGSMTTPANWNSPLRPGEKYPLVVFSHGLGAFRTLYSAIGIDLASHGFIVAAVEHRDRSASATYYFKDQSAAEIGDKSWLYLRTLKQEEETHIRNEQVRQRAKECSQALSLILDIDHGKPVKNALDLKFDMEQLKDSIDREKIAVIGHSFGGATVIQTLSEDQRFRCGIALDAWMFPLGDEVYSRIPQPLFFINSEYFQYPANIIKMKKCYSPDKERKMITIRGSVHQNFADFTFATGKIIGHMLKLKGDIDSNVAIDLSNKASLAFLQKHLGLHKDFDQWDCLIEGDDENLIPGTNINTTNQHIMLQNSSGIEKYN
Kind of assay: Determination of Lp-PLA2 in human plasma (Thio-PAF assay). The assay is classed as biochemical. The conditions noted are these: mixed human plasma, 2-thio-PAF substrate, 30 minutes pre-incubation at room temperature. An excerpt:
Determination of Lipoprotein-Related Phospholipase A2 (Lp-PLA2) in Human Plasma.
Human plasma determination utilizes a thioester analogue of phosphatidylcholine (PAF), where hydrolysis leads to the formation of phospholipids containing free thiol groups. The amount of the thiol groups is continuously determined by reacting with CPM (7-diethylamino-3-(4′-maleimidophenyl)-4-methylcoumarin), which is maleimide with increased fluorescence after Michael addition of the thiol groups. This determination can detect the activity of Lp-PLA2 in human plasma, for example, determined by the specific inhibition of the Lp-PLA2 inhibitors.
Thio-PAF determination, as quenched 75 μL determination, is carried out. A compound source plate is prepared by preparing a 1:3 (volume) series of diluents of each compound in pure DMSO on a 96-well microplate. A Rainin multi-channel pipette is used to transfer 3 μL of a compound on the compound source plate into a 96-well microplate where 57 μL of a determination buffer is pre-added, and the compound on the source plate is diluted by 20 folds. The above determination buffer contains 50 mM HEPES (pH 7.4), 150 mM NaCl, and 1 mM CHAPS. A Rainin multi-channel pipette is used to transfer 1 μL of the compound subjected to 20-fold dilution into a 96-well Greiner 655076 (black) microplate where 40 μL of equally-divided and thawed mixed human plasma is pre-added. The plate is oscillated for 20 seconds in an Elisa plate oscillator to be mixed evenly. After 30 minutes of pre-incubation at the room temperature, a Rainin multi-channel pipette is used to add 10 μL of a substrate solution to a 96-well Greiner 655076 (black) microplate, and the substrate solution contains 2.5 mM 2-thio-PAF [from ethanol mother liquor], 32 μM CPM [from DMSO mother liquor] and 3.2 mM NEM (N-ethylmaleimide) [newly prepared in DMSO for each experiment] in a determination buffer composed of 50 mM HEPES (pH 7.4), 150 mM NaCl, and 1 mM CHAPS. After 2 minutes, 25 μL of a 5% trifluoroacetic acid (TFA) aqueous solution is used for quenching the reaction. The plate is centrifuged at 2000 rpm for 1 minute. A Biotek Synergy H1 (H1MF) Elisa reader is used to read the plate at ex:380/em:485. GraphPad Prism 6.0 and Excel are used for IC50 data, curve, and QC analysis.
`O=c1nc(OCc2ccc(Oc3ccnc(C(F)(F)F)c3)c(F)c2)cc2n1CC[C@]13CO[C@H](CN21)C3` [Example 1, (7aS,10S)-2-((3-fluoro-4-((2-(trifluoromethyl)pyrid-4-yl)oxy)benzyl)oxy)-6,7,10,11-tetra hydro-4H,8H-7a,10-methanopyrimido[6′,1′:2,3]pyrimido[6,1-c][1,4]oxazin-4-one]: the IC50 came out at 5 nM. As for `O=c1nc(OCc2cc(F)c(Oc3ccnc(C(F)(F)F)c3)c(F)c2)cc2n1CC[C@]13CO[C@H](CN21)C3` [Example 3], the figure is 7.7 nM; as for `Cc1cc(Oc2c(F)cc(COc3cc4n(c(=O)n3)CC[C@]35CO[C@H](CN43)C5)cc2F)ccn1` [Example 4], 11.2 nM; as for `N#Cc1cc(COc2cc3n(c(=O)n2)CC[C@]24CO[C@H](CN32)C4)ccc1Oc1cccc(C(F)(F)F)c1` [Example 5], 4.5 nM.

Regarding `O=c1nc(OCc2cc(F)c(Oc3ccnc(Cl)c3)c(F)c2)cc2n1CC[C@]13CO[C@H](CN21)C3` [Example 6], the IC50 was 5 nM. The result for `O=c1nc(OCc2cc(F)c(Oc3ccnc(OC(F)(F)F)c3)c(F)c2)cc2n1CC[C@]13CO[C@H](CN21)C3` [Example 7] reads 3.6 nM; that for `O=c1nc(OCc2ccc(Oc3ccnc(C(F)F)c3)c(F)c2)cc2n1CC[C@]13CO[C@H](CN21)C3` [Example 8], 8.1 nM.

As to `O=c1nc(OCc2cc(F)c(Oc3cnc(C(F)(F)F)nc3)c(F)c2)cc2n1CC[C@]13CO[C@H](CN21)C3` [Example 9], the IC50 was determined as 6.3 nM. In the case of `N#Cc1cc(COc2cc3n(c(=O)n2)CC[C@]24CO[C@H](CN32)C4)ccc1F` [Example 10], the IC50 was found to be 10.8 nM. With `O=c1nc(OCCc2ccc(Oc3ccc(Cl)c(C(F)(F)F)c3)cc2)cc2n1CC[C@]13CO[C@H](CN21)C3` [Example 11, (7aS, 10S)-2-(4-(4-chloro-3-(trifluoro-methyl)phenoxy)phenylethoxy)-6,7, 10,11-tetrahydro-4H,8H-7a,10-methanopyrimido [6′,1′:2,3]pyrimido [6,1-c][1,4]oxazin-4-one], the IC50 turned out to be 8.9 nM.

As for `O=c1nc(OCc2cc(F)c(Oc3ccnc(C(F)(F)F)c3)c(F)c2)cc2n1CCC13CC(CN21)C3` [Example 12, 2-((3,5-difluoro-4-((2-(trifluoromethyl)pyrid-4-yl)oxy)benzyl)oxy)-6,7,9,10-tetrahydro-4H, 8H-7a,9-methano-pyrimido[1,6-a] pyrrolo[1,2-c]pyri-midine-4-one], the IC50 stood at 8.3 nM.

For the compound `O=c1nc(OCc2ccc(Oc3ccnc(C(F)(F)F)c3)c(F)c2)cc2n1CCC13CC(CN21)C3` [Example 13, 2-((3-fluoro-4-((2-(trifluoromethyl)pyrid-4-yl)oxy)benzyl)oxy)-6,7,9,10-tetrahydro-4H,8H-7a,9-methanopyri-mido[1,6-a]pyrrolo [1,2-c]pyrimidine-4-one], the IC50 was 8.3 nM. For the compound `O=c1nc(OCc2cc(F)c(Oc3ccc(Cl)c(C(F)(F)F)c3)c(F)c2)cc2n1CCC13CC(CN21)C3` [Example 14, 2-((4-(4-chloro-3-(trifluoromethyl)phenoxy)-3,5-di-fluorobenzyl)oxy)-6,7,9,10-tetrahydro-4H,8H-7a,9-methanopyrimido [1,6-a]pyrrolo[1,2-c] pyrimidine-4-one], the concentration for half-maximal inhibition (IC50) was found to be 8.8 nM.

Turning to `Cc1cc(Oc2c(F)cc(COc3cc4n(c(=O)n3)CCC35CC(CN43)C5)cc2F)ccn1` [Example 15, 2-((3,5-difluoro-4-((2-methylpyrid-4-yl)oxy)benzyl)oxy)-6,7,9,10-tetra-hydro-4H,8H-7a,9-methanopyrimido [1,6-a]pyrrolo[1,2-c]pyrimidine-4-one], the IC50 was determined as 27.6 nM. The result for `N#Cc1cc(COc2cc3n(c(=O)n2)CCC24CC(CN32)C4)ccc1Oc1cccc(C(F)(F)F)c1` [Example 16] reads 9.2 nM. The result for `O=c1nc(OCc2cc(F)c(Oc3ccnc(Cl)c3)c(F)c2)cc2n1CCC13CC(CN21)C3` [Example 17] reads 21.5 nM; that for `O=c1nc(OCc2cc(F)c(Oc3ccnc(OC(F)(F)F)c3)c(F)c2)cc2n1CCC13CC(CN21)C3` [Example 18], 11 nM; that for `O=c1nc(OCc2ccc(Oc3ccnc(C(F)F)c3)c(F)c2)cc2n1CCC13CC(CN21)C3` [Example 19], 37 nM. The result for `O=c1nc(OCc2cc(F)c(Oc3cnc(C(F)(F)F)nc3)c(F)c2)cc2n1CCC13CC(CN21)C3` [Example 20, 2-((3,5-difluoro-4-((2-(trifluoromethyl)pyrimidin-5-yl)oxy)benzyl)oxy)-6,7,9,10-tetrahydro-4H,8H-7a,9-methano-pyrimido[1,6-a] pyrrolo[1,2-c] pyrimidine-4-one] reads 37.5 nM. As to `N#Cc1cc(COc2cc3n(c(=O)n2)CCC24CC(CN32)C4)ccc1F` [Example 21], the IC50 was found to be 24.2 nM. As for `O=c1nc(OCCc2ccc(Oc3ccc(Cl)c(C(F)(F)F)c3)cc2)cc2n1CCC13CC(CN21)C3` [Example 22, 2-(4-(4-chloro-3-(trifluoromethyl)phenoxy)phenyl-ethoxy)-6,7,9,10-tetrahydro-4H,8H-7a,9-methano-pyrimido [1,6-a]pyrrolo[1,2-c] pyrimidine-4-one], the figure is 120 nM; as for `O=c1nc(OCc2cc(F)c(Oc3ccnc(C(F)(F)F)c3)c(F)c2)cc2n1CC[C@@]13CO[C@@H](CN21)C3` [Example 23], 4.9 nM. `N#Cc1cc(COc2cc3n(c(=O)n2)CC[C@@]24CO[C@@H](CN32)C4)ccc1Oc1cccc(C(F)(F)F)c1` [Example 25]: the IC50 was found to be 6.5 nM. The result for `O=c1nc(OCc2cc(F)c(Oc3ccnc(OC(F)(F)F)c3)c(F)c2)cc2n1CC[C@@]13CO[C@@H](CN21)C3` [Example 26] reads 6.6 nM. The result for `O=c1nc(OCc2cc(F)c(Oc3cnc(C(F)(F)F)nc3)c(F)c2)cc2n1CC[C@@]13CO[C@@H](CN21)C3` [Example 27] reads 4.6 nM.

As for `O=c1nc(OCCc2ccc(Oc3ccc(Cl)c(C(F)(F)F)c3)cc2)cc2n1CC[C@@]13CO[C@@H](CN21)C3` [Example 28, (7aR,10R)-2-(4-(4-chloro-3-(trifluoro-methyl)phenoxy)phenylethoxy)-6,7, 10,11-tetrahydro-4H,8H-7a,10-methanopyrimido [6′,1′:2,3] pyrimido[6,1-c] [1,4]oxazin-4-one], the IC50 worked out at 13.3 nM. As for `O=c1nc(OCc2cc(F)c(Oc3ccnc(C(F)(F)F)c3)c(F)c2)cc2n1CCC1CCCN21` (stereo not shown) [Example 29, 2-((3,5-difluoro-4-((2-(trifluoromethyl)pyrid-4-yl)oxy)benzyl)oxy)-6,7,7a,8,9,10-hexahy-dro-4H-pyrimidinyl [1,6-a]pyrrolo [1,2-c]pyrimidine-4-one], the figure is 54.1 nM; as for `O=c1nc(OCc2cc(F)c(Oc3cnc(C(F)(F)F)nc3)c(F)c2)cc2n1CCC1CCCN21` (stereo not shown) [Example 31], 97.1 nM; as for `N#Cc1cc(COc2cc3n(c(=O)n2)CCC2CCCN32)ccc1Oc1cccc(C(F)(F)F)c1` (stereo not shown) [Example 32], 45.7 nM. As for `O=c1nc(OCc2cc(F)c(Oc3ccc(Cl)c(C(F)(F)F)c3)c(F)c2)cc2n1CCC1CCCN21` (stereo not shown) [Example 33, 2-((4-(4-chloro-3-(trifluoromethyl)phenoxy)-3,5-di-fluorobenzyl)oxy)-6,7,7a,8,9,10-hexahydro-4H-pyrimidinyl [1,6-a]pyrrolo [1,2-c]pyrimidine-4-one], the IC50 stood at 24.7 nM.

`CC12CCCN1c1cc(OCc3ccc(Oc4ccnc(C(F)(F)F)c4)c(F)c3)nc(=O)n1CC2` (stereo not shown) [Example 34, 2-((3-fluoro-4-((2-(trifluoromethyl)pyrid-4-yl)oxy)benzyl)oxy)-7a-methyl-6,7,7a,8,9,10-hexahydro-4H-pyri-midinyl[1,6-a] pyrrolo[1,2-c] pyrimidine-4-one]: the 50% inhibitory concentration (IC50) stood at 9.9 nM.
